Source: patent US12622938B2 (priority 2020, dated 2026)
Values after ≈ are worked out from the molar mass of the structure shown.

What was measured:
HFF cells = conditions: human
Vaccinia virus = assay: microbe, parasite or virus in culture; format: cell-based
[1] = tested on: Flu A (H5N1) Vietnam/1203/2004H; assay: microbe, parasite or virus in culture; format: cell-based
Flu B Malaysia/2506/2004 [2] = assay: Flu B Malaysia/2506/2004, Neutral Red assay, MDCK; format: cell-based; conditions: control compound
Flu B Malaysia/2506/2004 [3] = assay: Flu B Malaysia/2506/2004, Visual assay, MDCK; format: cell-based
Flu B Shanghai/361/02 [4] = assay: Flu B Shanghai/361/02, Neutral Red assay, MDCK; format: cell-based; conditions: control compound, read-out: CTRL IC50
Flu B Shanghai/361/02 [5] = assay: Flu B Shanghai/361/02, Visual assay, MDCK; format: cell-based

SMILES: CCO [ethanol]
- CC50 (HFF cells): 7%

SMILES: C=C(CC[C@@H](C(=O)O)[C@H]1C[C@H](O)[C@@]2(C)C3=C(CC[C@]12C)[C@@]1(C)CC[C@H](O)C(C)(C)[C@@H]1CC3)C(C)C [Sulphurenic acid]
- Viral Inhibition Rate (Vaccinia virus; 3.7 μg/mL): 36%
- Viral Inhibition Rate (Vaccinia virus; 11 μg/mL): 51%
- Viral Inhibition Rate (Vaccinia virus; 33 μg/mL): 58%

SMILES: Nc1ccn(C[C@@H](CO)OCP(=O)(O)O)c(=O)n1 [Cidofovir]
- inhibition at 0.56 µg/mL (Vaccinia virus; Orthopoxvirus vaccinia, HFF, 0.56 μg/mL, read-out: Viral Inhibition Rate): 11%
- inhibition at 1.67 µg/mL (Vaccinia virus; Orthopoxvirus vaccinia, HFF, 1.67 μg/mL, read-out: Viral Inhibition Rate): 53%

SMILES: NC(=O)c1ncn([C@@H]2O[C@H](CO)[C@@H](O)[C@H]2O)n1 [Ribavirin]
- CTRL SI [1]: >46
- IC50 ([1]; Influenza A virus, H5N1, MDCK, read-out: CTRL IC50): > 320 µg/mL
- CTRL EC50 (Flu B Malaysia/2506/2004 [2]): 10 µg/mL
- IC50 (Flu B Malaysia/2506/2004 [2]; read-out: CTRL IC50): > 320 µg/mL
- CTRL EC50 (Flu B Malaysia/2506/2004 [3]; control compound, Flu B Malaysia/2506/2004, Visual): 3 µg/mL
- IC50 (Flu B Malaysia/2506/2004 [3]; read-out: CTRL IC50): > 320 µg/mL
- IC50 (Flu B Shanghai/361/02 [4]): > 320 µg/mL
- CTRL SI (Flu B Shanghai/361/02 [5]; control compound, Flu B Shanghai/361/02, Visual): >160
- EC50 (Flu B Shanghai/361/02 [5]; read-out: CTRL EC50): 2 µg/mL (≈ 8.19 µM)
- IC50 (Flu B Shanghai/361/02 [5]; read-out: CTRL IC50): > 320 µg/mL

SMILES: C=C(CC[C@@H](C(=O)O)[C@H]1CC[C@@]2(C)C3=C(CC[C@]12C)[C@@]1(C)CC[C@H](O)C(C)(C)[C@@H]1CC3)C(C)C [Eburicoic Acid]
- inhibition at 11 µg/mL (Vaccinia virus; Orthopoxvirus vaccinia, HFF, 11 μg/mL, read-out: Viral Inhibition Rate): 27%
- inhibition at 33 µg/mL (Vaccinia virus; Orthopoxvirus vaccinia, HFF, 33 μg/mL, read-out: Viral Inhibition Rate): 29%
- inhibition at 100 µg/mL (Vaccinia virus; Orthopoxvirus vaccinia, HFF, 100 μg/mL, read-out: Viral Inhibition Rate): 55%

SMILES: C=C(CC[C@@H](C(=O)O)[C@H]1C[C@H](O)[C@@]2(C)C3=CC[C@H]4C(C)(C)[C@@H](O)CC[C@]4(C)C3=CC[C@]12C)C(C)C [Dehydrosulphurenic Acid]
- Viral Inhibition Rate (Vaccinia virus; 11 μg/mL): 16%
- Viral Inhibition Rate (Vaccinia virus; 33 μg/mL): 58%
